Laboratory results from publication PMC11061419, “Identification of novel small molecule inhibitors of twin arginine translocation (Tat) pathway and their effect on the control of Campylobacter jejuni in chickens” (Frontiers in Microbiology, 2024).
≈ marks a conversion by molar mass, not a printed value.

Experiments:
[1] = system: intracellular C. jejuni 81–176 in Caco-2 cells; experiment: Copper sulfate sensitivity dose–response assay in infected Caco-2 colon epithelial cells; format: cell-based, Campylobacter jejuni; conditions: infected Caco-2 cells, 24 h, 0.5 mM CuSO4
Method: The intracellular reduction in C. jejuni in the presence of a given SM (T1-T8) and 0.5 mM CuSO4 were evaluated using Caco-2 cells, as previously described ([Kumar et al., 2016]; [Deblais et al., 2019]). In brief, cells were infected for 2 h using a multiplicity of infection (MOI) of 100. Infected cells were treated with SM at a final concentration ranging between 5 and 0.315 μg/mL and incubated at 37°C for 24 h in a humidified 5% CO2 incubator. Following incubation, cells were washed once with 1X PBS, lysed with 0.1% Triton-100X, serially 10-fold diluted in 1X PBS, and plated on MH agar plate. Plates were incubated in microaerophilic conditions at 42°C for 24 h, to determine the intracellular survival. Cells not infected and not treated and cells infected and treated with 1% DMSO were used as controls (N = two independent experiments with four technical replicate for each SM).

[2] = system: C. jejuni Au-47; experiment: Copper sulfate sensitivity dose–response assay in vitro (MIC/MBC); format: cell-based; conditions: Campylobacter jejuni; for MIC: AU47, read-out: MIC, Au-47 (Table S4); for MBC: AU47, 0.5 mM CuSO4, read-out: MBC, Au-47 (Table S5)
Method: (§1) Campylobacter jejuni 81–176 was the primary model strain used for the selection of the potential Tat-dependent inhibitors by high-throughput screening. C. jejuni 81–176 is resistant to 0.5 and 1 mM CuSO4 (Supplementary Figure S1). C. jejuni 81–176 tatC knockout mutant (C. jejuni ΔtatC) was used to confirm the Tat-dependent inhibitory effect of the selected SM. C. jejuni ΔtatC is susceptible to 0.5 mM and higher of CuSO4 ([Rajashekara et al., 2009]). The specificity of the Tat-dependent inhibitors was also tested on 11 additional Campylobacter strains (C. coli ATCC33559 and 10 other C. jejuni strains isolated from chickens) and 7 commensal/beneficial bacteria (Supplementary Table S1). The […] (Au-13, Au-20, Au-38, Au-39, Au-47, Au-50, Au-24, Au-32, Au-44, and Au-45) were selected based on their single nucleotide polymorphism (SNP)-type and percent of prevalence in chickens ([Merchant-Patel et al., 2008]; [Kumar et al., 2016]). Additional details about the bacterial strains are shown in Supplementary Table S1.
(§2) In total, 19 SMs were two-fold serially diluted to obtain a final SM concentration ranging from 6.25 to 0.012 μg/mL. C. jejuni 81–176 was then treated with a determined concentration of SM, as described in the copper sensitivity assay. […] The lowest bactericidal SM concentration was considered the MBC (no increase in OD600 over time and no viable cells were recovered on agar plate after challenge) (N = 3 replicates per SM). […] However, these SMs were two-fold serially diluted to obtain a final SM concentration ranging from 5 μg to 0.0625 μg for testing (N = two independent experiments with four technical replicate for each SM).

[3] = system: C. jejuni Au-13; experiment: as above; format: cell-based; conditions: Campylobacter jejuni; for MIC: AU13, read-out: MIC, Au-13 (Table S4); for MBC: AU13, 0.5 mM CuSO4, read-out: MBC, Au-13 (Table S5)
Method: as §1, §2

[4] = system: C. jejuni Au-44; experiment: as above; format: cell-based; conditions: Campylobacter jejuni; for MIC: AU44, read-out: MIC, Au-44 (Table S4); for MBC: AU44, 0.5 mM CuSO4, read-out: MBC, Au-44 (Table S5)
Method: as §1, §2

[5] = system: C. jejuni Au-39; experiment: as above; format: cell-based; conditions: Campylobacter jejuni; for MIC: AU39, read-out: MIC, Au-39 (Table S4); for MBC: AU39, 0.5 mM CuSO4, read-out: MBC, Au-39 (Table S5)
Method: as §1, §2

[6] = system: C. coli ATCC33559; experiment: as above; format: cell-based; conditions: Campylobacter coli; for MIC: ATCC33559, read-out: MIC, C. coli (Table S4); for MBC: ATCC33559, 0.5 mM CuSO4, read-out: MBC, C. coli (Table S5)
Method: as §1, §2

[7] = system: C. jejuni Au-38; experiment: as above; format: cell-based; conditions: Campylobacter jejuni; for MIC: AU38, read-out: MIC, Au-38 (Table S4); for MBC: AU38, 0.5 mM CuSO4, read-out: MBC, Au-38 (Table S5)
Method: as §1, §2

[8] = system: C. jejuni Au-24; experiment: as above; format: cell-based; conditions: Campylobacter jejuni; for MIC: AU24, read-out: MIC, Au-24 (Table S4); for MBC: AU24, 0.5 mM CuSO4, read-out: MBC, Au-24 (Table S5)
Method: as §1, §2

[9] = system: C. jejuni Au-32; experiment: as above; format: cell-based; conditions: Campylobacter jejuni; for MIC: AU32, read-out: MIC, Au-32 (Table S4); for MBC: AU32, 0.5 mM CuSO4, read-out: MBC, Au-32 (Table S5)
Method: as §1, §2

[10] = system: C. jejuni Au-50; experiment: as above; format: cell-based; conditions: Campylobacter jejuni; for MIC: AU50, read-out: MIC, Au-50 (Table S4); for MBC: AU50, 0.5 mM CuSO4, read-out: MBC, Au-50 (Table S5)
Method: as §1, §2

[11] = system: C. jejuni Au-20; experiment: as above; format: cell-based; conditions: Campylobacter jejuni; for MIC: AU20, read-out: MIC, Au-20 (Table S4); for MBC: AU20, 0.5 mM CuSO4, read-out: MBC, Au-20 (Table S5)
Method: as §1, §2

[12] = system: C. jejuni Au-45; experiment: as above; format: cell-based; conditions: Campylobacter jejuni; for MIC: AU45, read-out: MIC, Au-45 (Table S4); for MBC: AU45, 0.5 mM CuSO4, read-out: MBC, Au-45 (Table S5)
Method: as §1, §2

[13] = system: C. jejuni 81–176; experiment: as above; format: cell-based, Campylobacter jejuni; conditions: for MBC / MIC: Campylobacter jejuni, 0.5 mM CuSO4, head displaced; for MBC: read-out: MBC, C. jejuni (Table S5); for MIC: read-out: MIC, C. jejuni (Table S4); for C. jejuni 81–176 in vitro MBC: minimal bactericidal concentration in presence of 0.5 mM CuSO4; for C. jejuni 81–176 in vitro MIC: minimal bacteriostatic concentration in presence of 0.5 mM CuSO4
Method: as §2

[14] = system: Campylobacter spp. (12 strains); experiment: Activity spectrum against Campylobacter strains at 6.25 μg/mL with 0.5 mM CuSO4; format: cell-based, Campylobacter jejuni, Campylobacter coli; conditions: 6.25 μg/mL SM
[15] = system: Commensal/beneficial gut bacteria (n = 7); experiment: Activity spectrum against commensal/beneficial gut bacteria at 6.25 μg/mL; format: cell-based; conditions: 6.25 μg/mL SM; for Commensal/beneficial gut bacteria inhibited at 6.25 μg/mL (species): Ef Enterococcus faecalis, Lb Levilactobacillus brevis, LGG Lacticaseibacillus rhamnosus GG
Method: A similar experiment was performed with seven commensal/beneficial gut bacteria to determine species specificity of these SMs. In brief, an overnight suspension was normalized at 0.05 OD600 using the appropriate medium and challenged with 6.25 μg/mL of SM. Details about the strains and their growing conditions are shown in Supplementary Table S1. Medium alone and 1% DMSO were used as controls (N = 3 replicates per SM).

**Q.** With `CN(C)c1ccc(C(=O)Nc2ccc(CN3CCS(=O)(=O)CC3)cc2)cc1` [T3] as the compound, how does the “C. jejuni 81–176 MBC in Caco2 cells” value [1] read?
**A.** Its value is 5 µg/mL.

**Q.** And the MIC [2]?
**A.** The MIC was 6.25 µg/mL (≈ 16.1 µM).

**Q.** And the MBC [2]?
**A.** Its MBC is greater than 5 µg/mL.

**Q.** What about the MIC [3] of the same compound?
**A.** The MIC was 6.25 µg/mL (≈ 16.1 µM).

**Q.** And the MBC [3]?
**A.** The MBC was greater than 5 µg/mL.

**Q.** And the MIC [4]?
**A.** Its MIC is 6.25 µg/mL (≈ 16.1 µM).

**Q.** And the MBC [4]?
**A.** The MBC was greater than 5 µg/mL.

**Q.** And the MIC [5]?
**A.** The MIC was 6.25 µg/mL (≈ 16.1 µM).

**Q.** What about the MBC [5] of the same compound?
**A.** The MBC was greater than 5 µg/mL.

**Q.** And the MIC [6]?
**A.** The MIC was 1 µg/mL (≈ 2.58 µM).

**Q.** What about the MBC [6] of the same compound?
**A.** The MBC was greater than 5 µg/mL.

**Q.** What about the MIC [7] of the same compound?
**A.** Its MIC is 6.25 µg/mL (≈ 16.1 µM).

**Q.** What about the MBC [7] of the same compound?
**A.** The MBC was greater than 5 µg/mL.

**Q.** And the MIC [8]?
**A.** Its MIC is 6.25 µg/mL (≈ 16.1 µM).

**Q.** And the MBC [8]?
**A.** The MBC was greater than 5 µg/mL.

**Q.** What about the MIC [9] of the same compound?
**A.** Its MIC is 6.25 µg/mL (≈ 16.1 µM).

**Q.** What about the MBC [9] of the same compound?
**A.** The MBC was greater than 5 µg/mL.

**Q.** And the MIC [10]?
**A.** The MIC was 6.25 µg/mL (≈ 16.1 µM).

**Q.** What about the MBC [10] of the same compound?
**A.** Its MBC is greater than 5 µg/mL.

**Q.** And the MIC [11]?
**A.** The MIC was 6.25 µg/mL (≈ 16.1 µM).

**Q.** And the MBC [11]?
**A.** The MBC was greater than 5 µg/mL.

**Q.** And the MIC [12]?
**A.** The MIC was 6.25 µg/mL (≈ 16.1 µM).

**Q.** What about the MBC [12] of the same compound?
**A.** The MBC was greater than 5 µg/mL.

**Q.** What about the MBC [13] of the same compound?
**A.** Its MBC is greater than 5 µg/mL.

**Q.** And the MIC [13]?
**A.** Its MIC is 0.04 µg/mL (≈ 0.103 µM).

**Q.** And the “C. jejuni 81–176 in vitro MBC” value [13]?
**A.** Its value is greater than 5 µg/mL.

**Q.** And the “C. jejuni 81–176 in vitro MIC” value [13]?
**A.** Its value is 0.04 µg/mL.

**Q.** What about the “Growth inhibition at 6.25 μg/mL, Campylobacter spp. (strains inhibited/tested)” value [14] of the same compound?
**A.** The value was 12/12.

**Q.** And the “Growth inhibition at 6.25 μg/mL, Commensal/beneficial gut bacteria (strains inhibited/tested)” value [15]?
**A.** Its value is 2/7.

**Q.** What about the “Commensal/beneficial gut bacteria inhibited at 6.25 μg/mL (species)” value [15] of the same compound?
**A.** The value was “LGG and Ef”.

**Q.** Which results are given for `CCc1ccnc(NS(=O)(=O)c2ccc(C)c(Cl)c2)c1` [T4]?
**A.** MIC [2]: 0.62 µg/mL (≈ 1.99 µM); MBC [2]: > 5 µg/mL; MIC [3]: 0.62 µg/mL (≈ 1.99 µM); MBC [3]: > 5 µg/mL; MIC [4]: 6.25 µg/mL (≈ 20.1 µM); MBC [4]: > 5 µg/mL; MIC [5]: 6.25 µg/mL (≈ 20.1 µM); MBC [5]: > 5 µg/mL; MIC [6]: 6.25 µg/mL (≈ 20.1 µM); MBC [6]: > 5 µg/mL; MIC [7]: 6.25 µg/mL (≈ 20.1 µM); MBC [7]: > 5 µg/mL; MIC [8]: 6.25 µg/mL (≈ 20.1 µM); MBC [8]: > 5 µg/mL; MIC [9]: 6.25 µg/mL (≈ 20.1 µM); MBC [9]: > 5 µg/mL; MIC [10]: 0.31 µg/mL (≈ 0.997 µM); MBC [10]: > 5 µg/mL; MIC [11]: 0.62 µg/mL (≈ 1.99 µM); MBC [11]: > 5 µg/mL; MIC [12]: 6.25 µg/mL (≈ 20.1 µM); MBC [12]: > 5 µg/mL; MBC [13]: > 5 µg/mL; MIC [13]: 0.01 µg/mL (≈ 0.0322 µM); C. jejuni 81–176 in vitro MBC [13]: >5 µg/mL; C. jejuni 81–176 in vitro MIC [13]: 0.01 µg/mL; Growth inhibition at 6.25 μg/mL, Campylobacter spp. (strains inhibited/tested) [14]: 12/12; Growth inhibition at 6.25 μg/mL, Commensal/beneficial gut bacteria (strains inhibited/tested) [15]: 1/7; Commensal/beneficial gut bacteria inhibited at 6.25 μg/mL (species) [15]: Ef
